Results: US10457710B2, “Antimicrobial peptides, their variants and uses” (priority 2015, dated 2019)

Tests used:
Experiment in all cases: Radial diffusion assay (RDA)
Type in all cases: cell-based
Conditions in all cases: Peptides 50 μg, Gentamycin 5 μg; diameter including the wells
[1] = test system: Escherichia coli (ATCC 25922)
Procedure: (§1) The radial diffusion assay (RDA) was carried out as described by Andersen et al. (2010). Briefly, 30 ml of 1/10 Muller-Hinton broth (MHB) supplemented with 1% agarose and 5.0×10^5 CFU/ml S. aureus or E. coli or K. pneumoniae, P. aeruginosa cells was poured into a single-well omnitray (Nunc) and overlaid with a TSP 96-well plate. […] The peptides were also tested against Fusarium oxysporum and Verticillium dahliae, for which ⅓ potato dextrose agarose was used. To test the synergistic effect of peptides, each peptide was mixed in equimolar concentrations. Mix1 (met1-12), Mix2 (met3, 4 and 5), Mix3 (met 8, 9 and 10), Mix 4 (met11, 12) and Mix5 (8, 9, 10, 11, 12) were prepared and tested against E. coli and S. aureus. Gentamicin and vancomycin were included as positive controls for bacteria and amphotericin B was used as the control for fungi.

[2] = test system: Klebsiella pneumoniae (ATCC 10031)
Procedure: as §1

[3] = test system: Staphylococcus aureus (ATCC 25923)
Procedure: as §1

[4] = test system: Pseudomonas aeruginosa (ATCC 27853)
Procedure: as §1

Substance: Gentamicin [reference compound]
- Inhibition zone, Escherichia coli [1]: 22 mm
- Inhibition zone, Klebsiella pneumoniae [2]: 22 mm
- Inhibition zone, Staphylococcus aureus [3]: 24 mm
- Inhibition zone, Pseudomonas aeruginosa [4]: 24 mm
